Assay results published in patent US12630551B2, “Endocyclic pyrimidinone compounds, and preparation methods, compositions and use thereof” (NEUSCO BIOTECH LIMITED, priority 2020, dated 2026).

What was measured:
[1] = target: T1, recombinant human Lp-PLA2 enzyme (Homo sapiens, UniProt Q13093); experiment: Recombinant human Lp-PLA2 (rhLp-PLA2) assay (PED6 assay); assay type: biochemical; conditions: PED6 substrate, enzyme 4 nM or 110 pM, 30-min pre-incubation, fluorescence ex 480/em 540; for IC50: read-out: rhLp-PLA2 (pIC50) (converted)
T1 sequence (Q13093 22-441): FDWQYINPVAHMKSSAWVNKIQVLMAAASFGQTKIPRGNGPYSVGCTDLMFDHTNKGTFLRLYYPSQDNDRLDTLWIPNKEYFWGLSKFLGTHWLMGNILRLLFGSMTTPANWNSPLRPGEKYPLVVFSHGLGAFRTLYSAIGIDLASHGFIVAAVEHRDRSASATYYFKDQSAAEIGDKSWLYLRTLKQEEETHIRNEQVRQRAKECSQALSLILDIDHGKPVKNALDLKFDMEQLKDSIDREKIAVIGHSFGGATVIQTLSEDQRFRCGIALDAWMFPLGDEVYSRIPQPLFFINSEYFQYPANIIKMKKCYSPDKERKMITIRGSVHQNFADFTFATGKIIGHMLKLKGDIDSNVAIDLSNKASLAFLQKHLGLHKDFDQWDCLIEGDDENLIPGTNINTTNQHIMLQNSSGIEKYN
Method: (1) Recombinant Human Lp-PLA2 (rhLp-PLA2) Assay (Also Known as PED6 Assay) PED6 is a fluorescently labeled phospholipid, which could be purchased directly from Invitogene or Molecular Probes. PED6 has a fluorescence quenching […] and a Bodipy fluorescein (FL) group at the sn2 position. Once cleaved by an Lp-PLA2 enzyme, it will release the FL group, resulting in enhanced fluorescence. […] The plate was centrifuged at 500 rpm for 10 seconds.

[2] = target: T2, Lp-PLA2 enzyme in human plasma (Homo sapiens, UniProt Q13093); experiment: Human plasma Lp-PLA2 assay (Thio-PAF assay); assay type: biochemical; conditions: mixed human plasma, 2-thio-PAF substrate, CPM, 30-min pre-incubation, fluorescence ex 380/em 485; for IC50: read-out: Thio-PAF (pIC50) (converted)
T2 construct: from tissue; host or cells: mixed (pooled) human plasma
T2 sequence (Q13093 22-441): T1 sequence (Q13093 22-441)
Method: (2) Human Plasma Lp-PLA2 Assay (Also Known as Thio-PAF Assay) The human plasma assay was conducted using the […] analog of PAF (phosphatidylcholine). After hydrolysis, it would generate phospholipids containing free sulfhydryl groups, which would be subjected to Michael addition with CPM to generate fluorescence-enhancing maleimide. Continuous quantitative analysis of thiol could be conducted by detecting the fluorescence intensity. This assay can be used to detect the inhibitory activity of the Lp-PLA2 inhibitor on the Lp-PLA2 enzyme in human plasma. […] The plate was centrifuged at 500 rpm for 10 seconds. […] Two minutes later, the reaction was quenched with 5 μl of 5% trifluoroacetic acid.

Compound | IC50 [1] | IC50 [2] | rhLp-PLA2 (pIC50) [1] | Thio-PAF (pIC50) [2]
O=c1nc(OCc2cc(F)c(F)cc2F)cc2n1CC1CCCN2C1 (stereo not shown) [Compound 3] | 31.6 nM | 316 nM | – | –
O=c1nc(OCc2cc(F)c(Oc3ccc(C(F)(F)F)c(Cl)c3)c(F)c2)cc2n1CC1CCCN2C1 (stereo not shown) [Compound 16] | 0.0794 nM | 7.94 nM | – | –
Cc1ccc(Oc2c(F)cc(COc3cc4n(c(=O)n3)C[C@H]3CCCN4C3)cc2F)cn1 [Compound 18] | 0.0794 nM | 7.94 nM | – | –
Cc1ccc(Oc2c(F)cc(COc3cc4n(c(=O)n3)C[C@@H]3CCCN4C3)cc2F)cn1 [Compound 24] | 0.1 nM | 7.94 nM | – | –
Cc1cc(Oc2c(F)cc(COc3cc4n(c(=O)n3)CC3CCCN4C3)cc2F)ccc1Cl (stereo not shown) [Compound 11] | 0.0794 nM | 7.94 nM | – | –
O=c1nc(OCc2cc(F)c(F)cc2F)cc2n1C[C@@H]1CN2CCO1 [Compound 34] | 63.1 nM | 501 nM | – | –
O=c1nc(OCc2cc(F)c(Oc3cccc(C(F)(F)F)c3)c(F)c2)cc2n1C[C@@H]1CCCN2C1 [Compound 26] | 0.0398 nM | 3.98 nM | – | –
O=c1nc(OCc2cc(F)cc(F)c2)cc2n1CC1CCCN2C1 (stereo not shown) [Compound 4] | 3.16 nM | 39.8 nM | – | –
O=c1nc(OCc2cc(F)cc(F)c2)cc2n1C[C@H]1CCCN2C1 [Compound 27] | – | 50.1 nM | 8.5 | –
O=c1nc(OCc2cc(F)c(Oc3ccc(C(F)(F)F)cc3)c(F)c2)cc2n1CC1CCCN2C1 (stereo not shown) [Compound 13] | 0.0631 nM | 7.94 nM | – | –
O=c1nc(OCc2cc(F)cc(F)c2)cc2n1C[C@@H]1CN2CCO1 [Compound 39] | – | 100 nM | 8.4 | –
O=c1nc(OCc2cc(F)c(Oc3cnc(C(F)(F)F)nc3)c(F)c2)cc2n1CC1CCCN2C1 (stereo not shown) [Compound 9] | 0.1 nM | 10 nM | – | –
Cc1ccc(Oc2c(F)cc(COc3cc4n(c(=O)n3)CC3CCCN4C3)cc2F)cn1 (stereo not shown) [Compound 7] | 0.0794 nM | 7.94 nM | – | –
O=c1nc(OCc2cc(F)c(Oc3ccnc(C(F)(F)F)c3)c(F)c2)cc2n1CC1CCCN2C1 (stereo not shown) [Compound 5] | 0.0316 nM | 3.16 nM | – | –
O=c1nc(OCc2ccc(F)cc2F)cc2n1CC1CCCN2C1 (stereo not shown) [Compound 2] | 2.51 nM | 31.6 nM | – | –
O=c1nc(OCc2cc(F)c(Oc3cccc(C(F)(F)F)c3)c(F)c2)cc2n1CC1CCCN2C1 (stereo not shown) [Compound 10] | 0.126 nM | 10 nM | – | –
Cc1cc(Oc2c(F)cc(COc3cc4n(c(=O)n3)CC3CCCN4C3)cc2F)ccn1 (stereo not shown) [Compound 6] | 0.0631 nM | 6.31 nM | – | –
O=c1nc(OCc2cc(F)c(Oc3ccc(OC(F)(F)F)c(Cl)c3)c(F)c2)cc2n1CC1CCCN2C1 (stereo not shown) [Compound 15] | 0.2 nM | 12.6 nM | – | –
O=c1nc(OCc2cc(F)c(Oc3cccc(C(F)(F)F)c3)c(F)c2)cc2n1C[C@H]1CCCN2C1 [Compound 20] | 0.0316 nM | 3.16 nM | – | –
O=c1nc(OCc2cc(F)c(F)cc2F)cc2n1C[C@H]1CCCN2C1 [Compound 22] | 31.6 nM | 316 nM | – | –
O=c1nc(OCc2cc(F)cc(F)c2)cc2n1C[C@H]1CCCN2C1 [Compound 21] | 3.16 nM | 39.8 nM | – | –
O=c1nc(OCc2cc(F)c(Oc3cccc(OC(F)(F)F)c3)c(F)c2)cc2n1CC1CCCN2C1 (stereo not shown) [Compound 12] | 0.316 nM | 15.8 nM | – | –
O=c1nc(OCc2cc(F)c(F)cc2F)cc2n1C[C@@H]1CN2CCO1 [Compound 40] | 50.1 nM | – | – | 6.3
Cc1ccc(Oc2c(F)cc(COc3cc4n(c(=O)n3)C[C@@H]3CN4CCO3)cc2F)cn1 [Compound 30] | 0.158 nM | 10 nM | – | –
Cc1ncc(Oc2c(F)cc(COc3cc4n(c(=O)n3)CC3CCCN4C3)cc2F)cn1 (stereo not shown) [Compound 8] | 0.316 nM | 15.8 nM | – | –
O=c1nc(OCc2cc(F)cc(F)c2)cc2n1C[C@@H]1CN2CCO1 [Compound 33] | 3.98 nM | 79.4 nM | – | –
O=c1nc(OCc2cc(F)c(Oc3ccc(Cl)c(C(F)(F)F)c3)c(F)c2)cc2n1CC1CCCN2C1 (stereo not shown) [Compound 14] | 0.0398 nM | 6.31 nM | – | –
O=c1nc(OCc2cc(F)c(F)cc2F)cc2n1C[C@H]1CCCN2C1 [Compound 28] | 39.8 nM | – | – | 6.5
Cc1ccc(Oc2c(F)cc(COc3cc4n(c(=O)n3)C[C@H]3CN4CCO3)cc2F)cn1 [Compound 36] | 0.126 nM | 12.6 nM | – | –
